≈ marks a conversion by molar mass, not a printed value.
Legend:
Assay type in all cases: cell-based
[1] = system: Aspergillus flavus AFL1 (ATCC MYA-3631); experiment: Fungal MIC Protocol, Aspergillus flavus; details: Aspergillus flavus; 100% growth inhibition at 48 hours; read-out: MIC Aspergillus flavus 3631
How it was run: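 The MIC against Aspergillus flavus was measured by broth microdilution in RPMI/MOPS medium at pH 7.0. Compounds were diluted to 200 ug/mL from DMSO stocks, then ten serial dilutions were tested in duplicate in round bottom 96-well plates. Spores adjusted to a final OD530 of 0.002 were added, with no-cell and no-compound control wells, and plates were incubated 48 hours at 35° C.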

[2] = system: Aspergillus fumigatus T33439 (ATCC MYA-3626); experiment: Fungal MIC Protocol, Aspergillus fumigatus; details: Aspergillus fumigatus; 100% growth inhibition at 48 hours; read-out: MIC Aspergillus fumigatus 3626
How it was run: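 This broth microdilution MIC test used RPMI/MOPS medium at pH 7.0 with glucose. Compounds were diluted from DMSO stock to 200 ug/mL and serially diluted ten times in 96-well round bottom plates. Equal volumes of compound and Aspergillus spore suspension at OD530 0.002 were combined, with controls of compound without cells and spores without compound. Plates were bagged and incubated at 35° C. for 48 hours.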

[3] = system: Fusarium falciforme FS1 (ATCC MYA-3636); experiment: Fungal MIC Protocol, Fusarium falciforme; details: Fusarium falciforme; 100% growth inhibition at 48 hours; read-out: MIC Fusarium falciforme 3636
How it was run: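 MIC against Fusarium falciforme was determined by broth microdilution in RPMI/MOPS medium containing glucose. Compounds started at 200 ug/mL and were serially diluted ten times, then combined with harvested spores adjusted to an OD530 of 0.005. Controls held compound without cells and spores without compound. Plates were bagged and incubated at 35° C. for 48 hours.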

[4] = system: Fusarium solani (ATCC 58877); experiment: Fungal MIC Protocol, Fusarium solani; details: Fusarium solani, ATCC58877; 100% growth inhibition at 48 hours; read-out: MIC Fusarium solani 58877
How it was run: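 Broth microdilution MIC test against Fusarium solani in RPMI/MOPS medium at pH 7.0. Compounds from DMSO stock were diluted to 200 ug/mL, then serially diluted ten times and plated in duplicate at 50 μl per well. 50 ul of spore suspension at OD530 0.005 was added. Controls had compound without cells and spores without compound. Plates were mixed gently, bagged, and incubated at 35° C. for 48 hours.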

[5] = system: Mucor circinelloides 1463(62) (ATCC 26759); experiment: Fungal MIC Protocol, Mucor circinelloides (MIC-50); details: Mucor circinelloides, ATCC26759; 50% growth inhibition at 48 hours; read-out: MIC-50 Mucorales circinelloides 26579
How it was run: (§1)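 MIC-type endpoint: >50% growth inhibition, judged by eye with an inverted mirror. Spores in RPMI/MOPS (pH 7.0, ~2×10^4 cfu/mL) were incubated 48 hours at 35° C with duplicate serial compound dilutions.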

[6] = system: Mucor ramosissimus 057718 (ATCC 90286); experiment: Fungal MIC Protocol, Mucor ramosissimus (MIC-50); details: Mucor ramosissimus, ATCC90286; 50% growth inhibition at 48 hours; read-out: MIC-50 Mucorales ramosissimus 90286
How it was run: as §1

Candida albicans GDH2346 = experiment: Candida Minimal Inhibitory Concentration (MIC); details: Candida albicans, GDH2346; 50% growth inhibition at 48 hours; read-out: MIC-50 Candida albicans GDH2346
How it was run: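 Twofold serial dilutions from 200 μg/mL in RPMI 1640/MOPS with glucose, pH 7.0, tested in duplicate against yeast from an OD600 1.0 suspension diluted 1:1000. Incubated at 35° C; OD600 read at 24 and 48 h.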

| Structure (SMILES) | MIC [1] | MIC [2] | MIC [3] | MIC [4] | MIC50 [5] | MIC50 [6] | MIC50 (Candida albicans GDH2346) |
| --- | --- | --- | --- | --- | --- | --- | --- |
| Cn1c(-c2ccc(C3CCN(C(=N)N)CC3)cc2)nnc1-c1ccc(C2CCN(C(=N)N)CC2)cc1 [Example 39, 4,4′-(4,4′-(4-Methyl-4H-1,2,4-triazole-3,5-diyl)bis(4,1-phenylene))dipiperidine-1-carboximidamide] | 1.56 µg/mL (≈ 3.21 µM) | 1.56 µg/mL (≈ 3.21 µM) | 0.78 µg/mL (≈ 1.61 µM) | 0.78 µg/mL (≈ 1.61 µM) | > 100 µg/mL | > 100 µg/mL | 0.78 µg/mL (≈ 1.61 µM) |
| N=C(N)N1CC=C(c2ccc(-c3nnc(-c4ccc(C5=CCN(C(=N)N)CC5)cc4)o3)cc2)CC1 [Example 41, 4-(4-{5-[4-(1-Carbamimidoyl-1,2,3,6-tetrahydropyridin-4-yl)phenyl]-1,3,4-oxadiazol-2-yl}phenyl)-1,2,3,6-tetrahydropyridine-1-carboximidamide] | 3.13 µg/mL (≈ 6.68 µM) | 3.13 µg/mL (≈ 6.68 µM) | 0.39 µg/mL (≈ 0.832 µM) | 6.25 µg/mL (≈ 13.3 µM) | 100 µg/mL (≈ 213 µM) | 100 µg/mL (≈ 213 µM) | 0.39 µg/mL (≈ 0.832 µM) |
| Cc1cc(-c2nnc(-c3ccc(C4=CCN(C(=N)N)CC4)cc3)o2)ccc1C1=CCN(C(=N)N)CC1 [Example 42, 4-(4-(5-(4-(1-Carbamimidoyl-1,2,3,6-tetrahydropyridin-4-yl)-3-methylphenyl)-1,3,4-oxadiazol-2-yl)phenyl)-5,6-dihydropyridine-1(2H)-carboximidamide] | 6.25 µg/mL (≈ 13 µM) | > 25 µg/mL | 0.39 µg/mL (≈ 0.808 µM) | 1.56 µg/mL (≈ 3.23 µM) | 25 µg/mL (≈ 51.8 µM) | 25 µg/mL (≈ 51.8 µM) | 0.39 µg/mL (≈ 0.808 µM) |
| Cc1cc(C2=CCN(C(=N)N)CC2)ccc1-c1nnc(-c2ccc(C3=CCN(C(=N)N)CC3)cc2)o1 [Example 43, 4-(4-(5-(4-(1-Carbamimidoyl-1,2,3,6-tetrahydropyridin-4-yl)-2-methylphenyl)-1,3,4-oxadiazol-2-yl)phenyl)-5,6-dihydropyridine-1(2H)-carboximidamide] | 0.31 µg/mL (≈ 0.642 µM) | 0.78 µg/mL (≈ 1.62 µM) | 0.2 µg/mL (≈ 0.414 µM) | 0.78 µg/mL (≈ 1.62 µM) | 12.5 µg/mL (≈ 25.9 µM) | 25 µg/mL (≈ 51.8 µM) | 0.39 µg/mL (≈ 0.808 µM) |

Continued, values first:

| MIC [1] | MIC [2] | MIC [3] | MIC [4] | MIC50 [5] | MIC50 [6] | MIC50 (Candida albicans GDH2346) | Structure (SMILES) |
| --- | --- | --- | --- | --- | --- | --- | --- |
| 0.78 µg/mL (≈ 1.55 µM) | 0.78 µg/mL (≈ 1.55 µM) | < 0.1 µg/mL | 3.13 µg/mL (≈ 6.2 µM) | 0.78 µg/mL (≈ 1.55 µM) | 6.25 µg/mL (≈ 12.4 µM) | 1.56 µg/mL (≈ 3.09 µM) | N=C(N)N1CC=C(c2ccc(-c3nnc(-c4ccc(C5=CCN(C(=N)N)CC5)cc4F)o3)c(F)c2)CC1 [Example 48] |
| 0.78 µg/mL (≈ 1.55 µM) | 3.13 µg/mL (≈ 6.2 µM) | < 0.1 µg/mL | 3.13 µg/mL (≈ 6.2 µM) | 1.56 µg/mL (≈ 3.09 µM) | 25 µg/mL (≈ 49.5 µM) | 1.56 µg/mL (≈ 3.09 µM) | N=C(N)N1CC=C(c2ccc(-c3nnc(-c4ccc(C5=CCN(C(=N)N)CC5)c(F)c4)o3)cc2F)CC1 [Example 49, 4,4′-(4,4′-(1,3,4-oxadiazole-2,5-diyl)bis(2-fluoro-4,1-phenylene)) bis(5,6-dihydropyridine-1(2H)-carboximidamide)] |
| 0.39 µg/mL (≈ 0.802 µM) | 0.78 µg/mL (≈ 1.6 µM) | < 0.1 µg/mL | 1.56 µg/mL (≈ 3.21 µM) | 50 µg/mL (≈ 103 µM) | 25 µg/mL (≈ 51.4 µM) | 0.78 µg/mL (≈ 1.6 µM) | N=C(N)N1CC=C(c2ccc(-c3nnc(-c4ccc(C5=CCN(C(=N)N)CC5)cc4F)o3)cc2)CC1 [Example 50, 4-(4-(5-(4-(1-Carbamimidoyl-1,2,3,6-tetrahydropyridin-4-yl)-2-fluorophenyl)-1,3,4-oxadiazol-2-yl)phenyl)-5,6-dihydropyridine-1(2H)-carboximidamide] |
| 0.39 µg/mL (≈ 0.811 µM) | 1.56 µg/mL (≈ 3.25 µM) | < 0.1 µg/mL | 0.78 µg/mL (≈ 1.62 µM) | 0.39 µg/mL (≈ 0.811 µM) | 3.13 µg/mL (≈ 6.51 µM) | 0.5 µg/mL (≈ 1.04 µM) | Cn1nc(-c2ccc(C3=CCN(C(=N)N)CC3)cc2)cc1-c1ccc(C2=CCN(C(=N)N)CC2)cc1 [Example 54, 4,4′-(4,4′-(1-Methyl-1H-pyrazole-3,5-diyl)bis(4,1-phenylene)) bis(5,6-dihydropyridine-1(2H)-carboximidamide)] |

— patent publication US20240018121A1, “NOVEL HETEROAROMATIC COMPOUNDS EXHIBITING ANTIFUNGAL ACTIVITY AND THEIR METHOD OF USE” (FOX CHASE CHEMCIAL DIVERSITY CENTER, INC., priority 2020, published 2024)
